From patent US20230092005A1, “COMPOSITIONS AND METHODS FOR TREATING CANCER AND TUMOR” (OBLATO, INC., priority 2020, published 2023)

Key:
Solubility in water = assay type: physicochemical; conditions: free acid
Procedure: In certain embodiments, the 2,4-ds-PBN can be prepared by a two-step reaction sequence. For example, tertiary butyl […] (2-methyl-2-nitropropane) can be converted to the corresponding n-hydroxylamine using a suitable catalyst such as an activated zinc/acetic acid catalyst or an aluminum/mercury amalgam catalyst. This reaction can be carried out in about 0.5 to 12 hours and especially about 2 to 6 hours or so at a temperature of about 15-100° C. in a liquid reaction medium such as alcohol/water mixture in the case of the zinc catalyst or an ether/water mixture in the case of the aluminum amalgam catalyst. The freshly formed hydroxylamine can be reacted with 4-formyl-1,3-benzenedisulfonic acid, with a slight excess of the amine being used. This reaction can be carried out at similar temperature conditions. This reaction can be completed in from about 10 to about 24 hours. The formed material through the two reactions can be the free acid and be characterized by a molecular weight of 337.3 g/mole. In some embodiments, the formed material can be a white powdery material that decomposes upon heating. In non-limiting embodiments, the formed material can be characterized by solubility in water of greater than 1 gram/ml and a^1H NMR spectrum in D2O of 8.048 ppm (dd, 8.4, 1.7 Hz); 8.836 ppm (d, 8.4 Hz); 8.839 ppm (d, 1.7 Hz); 8.774 ppm (s).

[1] = tested on: human A549 lung cancer xenografts; test: Anti-cancer efficacy in nude mice carrying human A549 lung cancer xenografts (tumor volume, tumor weight, growth inhibition rate); assay type: in vivo, BALB/c Nude mouse; conditions: for Tumor volume (mean): G5, 2 mg/kg I.P. once a week
Procedure: The anti-cancer efficacy of OKN-007 was assessed after oral administration in nude mice carrying human A549 lung cancer xenografts implanted subcutaneously in the flank. Human lung cancer cell line, A549 was used. […] The frozen cells were thawed in a water bath. Cells were placed in a tube containing the medium and centrifuged (1,000 rpm, 5 minutes) to discard the supernatant. After re-suspending with the culture medium, cells were placed in a cell culture flask and incubated in a 5% CO2 incubator at 37° C. Cells were sub-cultured at a ratio of 1:5 when grown with confluency of 70-80% in the culture container. Cells cultured on the day of cell line transplantation were centrifuged (1,000 rpm, 5 minutes) to discard the supernatant and to make cell suspension with D-PB S. Then, the cell suspension was mixed with Matrigel at a ratio of 1:1 (5×10^7 cells/mL). BALB/c Nude mouse, [NT]-Foxnlnu/CrlOri, SPF was used. Sex, number, age, and body weight range of animals at receipt: The mice (65 mice) were male, 5 weeks old, and had about 14.5-19.6 g weight at the receipt. Cell transplantation: After the quarantine-acclimation period, the body weight measurement and cell transplantation in healthy animals were performed. […] Prepared cell (1×10^7 cells/0.2 mL) suspension was injected subcutaneously into the right flank with disposable syringes. […] Group assignment: After transplanting cells, each tumor size was monitored for 65 animals. When tumor volume reached within 87-112 mm^3, 50 animals were assigned to the respective groups with an average tumor volume of about 99 mm^3. Based on the tumor volume, animals were selected and randomly distributed into 5 groups (10 animals/group). Dosing Route: Oral administration. The route of administration was oral because the clinical application of the test substance is oral. Method and frequency of administration: For negative control and test substance, oral administration was performed once a day for 4 weeks for a total of 28 times using a disposable syringe. For positive control, intraperitoneal administration was performed once a week for 4 weeks for a total of 4 times using a disposable syringe. Dosing Route: The dose levels of the test substance were selected at 150, 300, and 600 mg/kg. The dose level of the positive substance was selected at 2 mg/kg. The dose volume was selected at 10 mL/kg for all groups, and the individual dose was calculated based on the bodyweight of animals just prior to dosing. Measurement of tumor volume: The largest diameter (a) and the smallest diameter (b) of each tumor were measured using calipers twice a week during the observation period. The tumor volume (TV) was calculated twice a week according to the following formula: TV (mm^3)=(a (mm)×b^2 (mm^2))/2. The volume of a tumor before administration to each animal was set to the value measured at the time of group assignment. Tumor removal and measurement of body weight: After the observation period, animals were anesthetized by inhalation of isoflurane. After the tumor was extracted, the weight of the removed tumor was recorded. The tumor growth inhibition rate (IR) was calculated using the following formula: IR (%)=(1-T/C)×100, where T is a mean tumor weight in the test substance group, and positive substance group, and C is a mean tumor weight in the negative control group.

[2] = tested on: human A549 lung cancer xenografts; test: TUNEL staining of extracted A549 xenograft tumors (apoptosis counting and grading); assay type: in vivo, BALB/c Nude mouse; conditions: for Apoptosis counting No. (group mean ± S.D.): TUNEL positive cells per 1 mm^2; for Number of apoptotic cells in the tumor compared to the negative control group (G1): G5, 2 mg/kg, TUNEL
Source text: Histopathological test: The extracted tumors were fixed in 10% neutral buffered formalin solution (10% neutral buffered formalin). After sectioning the tumors to a certain thickness (about 3 mm), those were subjected to the general preparation procedure, embedded in paraffin, cut into 4 to 5 μm size, and tissue sections were stained with Hematoxylin and Eosin (H&E) and TUNEL. IHC (Immunohistochemistry) slides, cut into 4 to 5 μm size, were produced and sent to the sponsor (Negative Control Group (G1), Test substance 2 (G3, Animal ID Nos.: 1301, 1302, 1303, 1307, 1310), Test substance 3 (G4, Animal ID Nos.: 1401, 1402, 1404, 1408, 1409)). Determination of TUNEL staining results: After histological examination of the entire cross-section of the tumor for grading (±, +, ++, +++, ++++) of apoptosis, the nucleated brown stained cells were read as […] was counted. The apoptosis of the tumor was determined by the number of positive cells per […] (1 mm^2). The apoptosis of the tumor was determined by calculating the average number of positive cells and graded into the corresponding severity. The number of positive cells in which apoptosis occurred was determined by counting the number of positive cells per unit area (1 mm^2). Histopathological test (Table 7, FIGS. 7-11): The extracted fixed tumor was cut to a certain thickness (about 3 mm), then subjected to general tissue treatment, paraffin-embedded to produce blocks, and tissue sections of 4 to 5 μm in size were prepared. Then, Hematoxylin & Eosin (H&E) staining and TUNEL staining were performed.

[3] = tested on: human A549 lung cancer xenografts; test: Hematoxylin & Eosin (H&E) staining of extracted A549 xenograft tumors (necrosis grading); assay type: in vivo, BALB/c Nude mouse
Source text: Histopathological test: The extracted tumors were fixed in 10% neutral buffered formalin solution (10% neutral buffered formalin). After sectioning the tumors to a certain thickness (about 3 mm), those were subjected to the general preparation procedure, embedded in paraffin, cut into 4 to 5 μm size, and tissue sections were stained with Hematoxylin and Eosin (H&E) and TUNEL. IHC (Immunohistochemistry) slides, cut into 4 to 5 μm size, were produced and sent to the sponsor (Negative Control Group (G1), Test substance 2 (G3, Animal ID Nos.: 1301, 1302, 1303, 1307, 1310), Test substance 3 (G4, Animal ID Nos.: 1401, 1402, 1404, 1408, 1409)). Determination of Hematoxylin & Eosin (H&E) staining results: Necrosis of tumors was assessed by grading (±, +, ++, +++, ++++) the extent of necrosis in the whole section of the tumor. Necrosis was evaluated by morphological changes such as collapse or disappearance of the nucleus and eosinophilic change of cytoplasm. The extent of tumor necrosis was determined by the percentage of the following necrosis area. Histopathological test (Table 7, FIGS. 7-11): The extracted fixed tumor was cut to a certain thickness (about 3 mm), then subjected to general tissue treatment, paraffin-embedded to produce blocks, and tissue sections of 4 to 5 μm in size were prepared. Then, Hematoxylin & Eosin (H&E) staining and TUNEL staining were performed.

## CC(C)(C)/[N+]([O-])=C\c1ccc(S(=O)(=O)O)cc1S(=O)(=O)O [2,4-ds-PBN, 2,4-disulfonyl a-phenyl tert-butyl nitrone]
Solubility in water
  solubility: > 1000 mg/mL

## N.N.[Cl][Pt][Cl] [cisplatin, Cis-Diammineplatinum (II) dichloride, reference compound]
[1]; G5, 2 mg/kg I.P. once a week for 4 weeks, tumors weighed at day 29
  Tumor weights (mean): 0.37 g
[1]; day 1 (before administration)
  Tumor volume (mean): 99 mm^3
[1]; day 5 after administration
  Tumor volume (mean): 152 mm^3
[1]; day 8 after administration
  Tumor volume (mean): 171 mm^3
[1]; day 12 after administration
  Tumor volume (mean): 176 mm^3
[1]; day 15 after administration
  Tumor volume (mean): 199 mm^3
[1]; day 19 after administration
  Tumor volume (mean): 250 mm^3
[1]; day 22 after administration
  Tumor volume (mean): 314 mm^3
[1]; day 26 after administration
  Tumor volume (mean): 385 mm^3
[1]; day 29 after administration
  Tumor volume (mean): 481 mm^3
[1]; G5, 2 mg/kg I.P., IR=(1-T/C)x100 from mean tumor weights, day 29
  Tumor growth inhibition rate (IR): 59.8%
[1]; G5, 2 mg/kg, end of the observation period
  Tumor volume and size compared to the negative control: statistically significant decrease in tumor volume and size
[2]; G5, 2 mg/kg I.P., N=10
  Apoptosis grade + : number of animals: 2
  Apoptosis grade ++ (moderate): number of animals: 0
  Apoptosis grade +++ (marked): number of animals: 0
  Apoptosis grade ++++ (severe): number of animals: 0
  Apoptosis grade ± (minimal): number of animals: 8
[2]; G5, 2 mg/kg I.P.
  Apoptosis counting No. (group mean ± S.D.): 87.5 ± 50.6 No./mm^2
[2]; G5, 2 mg/kg I.P., listed as Cisplatin
  Apoptosis counting No. (group mean ± S.D.): 87.5±50.6 No./mm^2
[2]
  Number of apoptotic cells in the tumor compared to the negative control group (G1): significant increase in the number of apoptotic cells
[2]; listed as Cisplatin
  Number of apoptotic cells in the tumor compared to the negative control group (G1): no statistically significant difference
[3]; G5, 2 mg/kg I.P., N=10
  Necrosis grade + : number of animals: 2
  Necrosis grade ++ (moderate): number of animals: 2
  Necrosis grade +++ (marked): number of animals: 0
  Necrosis grade ++++ (severe): number of animals: 0
  Necrosis grade ± (minimal): number of animals: 6
[3]; G5, 2 mg/kg, H&E
  Severity of necrosis compared to the negative control group (G1): does not significantly different
